These results are taken from PubChem BioAssay AID1259407 (Chemical Carcinogenesis Research Information System (CCRIS), 2018).

Activity calls are given as the source filed them. No rule for the calls is given here.

The series concerns CCRIS mutagenicity, Ames/micronucleus/aberration tests. The experiment in a line: CCRIS mutagenicity studies.
Setting [1] is: Test System: AMES SALMONELLA TYPHIMURIUM, Strain/Indicator: TA98, Metabolic Activation: NONE, Method: PREINCUBATION

Consider `O=S(=O)(O)Oc1ccc2ccc3c4ccccc4cc4ccc1c2c43`, for which the mutagenic call runs as follows: under setting [1], “inactive; negative”; (Test System: AMES SALMONELLA TYPHIMURIUM, Strain/Indicator: TA98, Metabolic Activation: RAT, LUNG, S-9, Method: PREINCUBATION) “inactive; negative”.
`O=C1C=CC(=O)CC(=O)C1`: the mutagenic call was “inactive; negative” (Test System: AMES SALMONELLA TYPHIMURIUM, Strain/Indicator: TA98, Metabolic Activation: HAMSTER, LIVER, S-9, AROCLOR 1254, Method: STANDARD PLATE); “inactive; negative” (Test System: AMES SALMONELLA TYPHIMURIUM, Strain/Indicator: TA98, Metabolic Activation: NONE, Method: STANDARD PLATE); “inactive; negative” (Test System: AMES SALMONELLA TYPHIMURIUM, Strain/Indicator: TA98, Metabolic Activation: RAT, LIVER, S-9, AROCLOR 1254, Method: STANDARD PLATE); “inactive; negative” (Test System: AMES SALMONELLA TYPHIMURIUM, Strain/Indicator: TA100, Metabolic Activation: HAMSTER, LIVER, S-9, AROCLOR 1254, Method: STANDARD PLATE); “inactive; negative” (Test System: AMES SALMONELLA TYPHIMURIUM, Strain/Indicator: TA100, Metabolic Activation: NONE, Method: STANDARD PLATE); “inactive; negative” (Test System: AMES SALMONELLA TYPHIMURIUM, Strain/Indicator: TA100, Metabolic Activation: RAT, LIVER, S-9, AROCLOR 1254, Method: STANDARD PLATE). The mutagenic call (Test System: AMES SALMONELLA TYPHIMURIUM, Strain/Indicator: TA1535, Metabolic Activation: HAMSTER, LIVER, S-9, AROCLOR 1254, Method: STANDARD PLATE) is “inactive; negative”; the mutagenic call (Test System: AMES SALMONELLA TYPHIMURIUM, Strain/Indicator: TA1535, Metabolic Activation: NONE, Method: STANDARD PLATE) is “inactive; negative”; the mutagenic call (Test System: AMES SALMONELLA TYPHIMURIUM, Strain/Indicator: TA1535, Metabolic Activation: RAT, LIVER, S-9, AROCLOR 1254, Method: STANDARD PLATE) is “inactive; negative”; the mutagenic call (Test System: AMES SALMONELLA TYPHIMURIUM, Strain/Indicator: TA1537, Metabolic Activation: HAMSTER, LIVER, S-9, AROCLOR 1254, Method: STANDARD PLATE) was “inactive; negative”; the mutagenic call (Test System: AMES SALMONELLA TYPHIMURIUM, Strain/Indicator: TA1537, Metabolic Activation: NONE, Method: STANDARD PLATE) is “inactive; negative”; the mutagenic call (Test System: AMES SALMONELLA TYPHIMURIUM, Strain/Indicator: TA1537, Metabolic Activation: RAT, LIVER, S-9, AROCLOR 1254, Method: STANDARD PLATE) is “inactive; negative”. The mutagenic call is, setting by setting: (Test System: AMES SALMONELLA TYPHIMURIUM, Strain/Indicator: TA1538, Metabolic Activation: HAMSTER, LIVER, S-9, AROCLOR 1254, Method: STANDARD PLATE) “inactive; negative”; (Test System: AMES SALMONELLA TYPHIMURIUM, Strain/Indicator: TA1538, Metabolic Activation: NONE, Method: STANDARD PLATE) “inactive; negative”; (Test System: AMES SALMONELLA TYPHIMURIUM, Strain/Indicator: TA1538, Metabolic Activation: RAT, LIVER, S-9, AROCLOR 1254, Method: STANDARD PLATE) “inactive; negative”; (Test System: MOUSE LYMPHOMA, Strain/Indicator: L5178Y (TK+/TK-), Metabolic Activation: NONE, Method: SUSPENSION/PLATE) “active; positive. reevaluation of results: positive”; (Test System: MOUSE LYMPHOMA, Strain/Indicator: L5178Y (TK+/TK-), Metabolic Activation: RAT, LIVER, S-9, AROCLOR 1254, Method: SUSPENSION/PLATE) “inactive; negative. reevaluation of results: negative”.
Consider `C1=CC2C3C=CC(C3)C2C1` (configuration not stated), for which the mutagenic call runs as follows: (Test System: AMES SALMONELLA TYPHIMURIUM, Strain/Indicator: TA98, Metabolic Activation: HAMSTER, LIVER, S-9, AROCLOR 1254 (10%), Method: PREINCUBATION) “inactive; negative”; under setting [1], “inactive; negative”; (Test System: AMES SALMONELLA TYPHIMURIUM, Strain/Indicator: TA98, Metabolic Activation: RAT LIVER S-9, PHENOBARBITAL AND BETA-NAPHTHOFLAVONE, Method: PREINCUBATION) “inactive; negative”; (Test System: AMES SALMONELLA TYPHIMURIUM, Strain/Indicator: TA98, Metabolic Activation: RAT, LIVER, S-9, AROCLOR 1254 (10%), Method: PREINCUBATION) “inactive; negative”; (Test System: AMES SALMONELLA TYPHIMURIUM, Strain/Indicator: TA100, Metabolic Activation: HAMSTER, LIVER, S-9, AROCLOR 1254 (10%), Method: PREINCUBATION) “inactive; negative”; (Test System: AMES SALMONELLA TYPHIMURIUM, Strain/Indicator: TA100, Metabolic Activation: NONE, Method: PREINCUBATION) “inactive; negative”. The mutagenic call is “inactive; negative” (Test System: AMES SALMONELLA TYPHIMURIUM, Strain/Indicator: TA100, Metabolic Activation: RAT LIVER S-9, PHENOBARBITAL AND BETA-NAPHTHOFLAVONE, Method: PREINCUBATION); “inactive; negative” (Test System: AMES SALMONELLA TYPHIMURIUM, Strain/Indicator: TA100, Metabolic Activation: RAT, LIVER, S-9, AROCLOR 1254 (10%), Method: PREINCUBATION); “inactive; negative” (Test System: AMES SALMONELLA TYPHIMURIUM, Strain/Indicator: TA1535, Metabolic Activation: HAMSTER, LIVER, S-9, AROCLOR 1254 (10%), Method: PREINCUBATION); “inactive; negative” (Test System: AMES SALMONELLA TYPHIMURIUM, Strain/Indicator: TA1535, Metabolic Activation: NONE, Method: PREINCUBATION); “inactive; negative” (Test System: AMES SALMONELLA TYPHIMURIUM, Strain/Indicator: TA1535, Metabolic Activation: RAT LIVER S-9, PHENOBARBITAL AND BETA-NAPHTHOFLAVONE, Method: PREINCUBATION); “inactive; negative” (Test System: AMES SALMONELLA TYPHIMURIUM, Strain/Indicator: TA1535, Metabolic Activation: RAT, LIVER, S-9, AROCLOR 1254 (10%), Method: PREINCUBATION). The mutagenic call by setting is: (Test System: AMES SALMONELLA TYPHIMURIUM, Strain/Indicator: TA1537, Metabolic Activation: HAMSTER, LIVER, S-9, AROCLOR 1254 (10%), Method: PREINCUBATION) “inactive; negative”; (Test System: AMES SALMONELLA TYPHIMURIUM, Strain/Indicator: TA1537, Metabolic Activation: NONE, Method: PREINCUBATION) “inactive; negative”; (Test System: AMES SALMONELLA TYPHIMURIUM, Strain/Indicator: TA1537, Metabolic Activation: RAT LIVER S-9, PHENOBARBITAL AND BETA-NAPHTHOFLAVONE, Method: PREINCUBATION) “inactive; negative”; (Test System: AMES SALMONELLA TYPHIMURIUM, Strain/Indicator: TA1537, Metabolic Activation: RAT, LIVER, S-9, AROCLOR 1254 (10%), Method: PREINCUBATION) “inactive; negative”; (Test System: E.COLI, Strain/Indicator: WP2UVRA, Metabolic Activation: NONE, Method: PREINCUBATION) “inactive; negative”; (Test System: E.COLI, Strain/Indicator: WP2UVRA, Metabolic Activation: RAT LIVER S-9, PHENOBARBITAL AND BETA-NAPHTHOFLAVONE, Method: PREINCUBATION) “inactive; negative”.
